Consider 22 compounds from patent publication US8394785B2, “Methods for the treatment and amelioration of urticaria” (Jado Technologies GmbH, priority 2005, dated 2013).

For data set [1], the system named is Rat basophilic leukemia (RBL-2H3) cells. Nature of the data set: Mast cell degranulation assay (β-hexosaminidase release). The format is cell-based. The note with it: for pIC50: 1 h, concentration at which 50% of maximal inhibition is reached, RBL-2H3, 60 min incubation with compound, DNP antigen challenge, read-out: ID50 (the source's name); for activity in the mast cell degranulation assay (in words): FIGS. 1 to 8. The protocol:
The assay measures release of β-hexosaminidase as a marker of release of various preformed pharmacological agents in response to clustering of the high affinity IgE receptor (FcεRI) by means of multivalent antigen-IgE complexes. Rat basophilic leukemia (RBL-2H3) cells, a commonly used model of mast cell degranulation, are sensitized with anti-DNP specific IgE and challenged with multivalent DNP-BSA. The release of β-hexosaminidase into the supernatant is measured by enzymatic conversion of the fluorogenic substrate 4-methylumbelliferyl-N-acetyl-β-D-glucosaminide to N-acetyl-β-D-glucosamine and highly fluorescent methylumbelliferone and quantified by fluorescence detection in a Tecan Safire™ plate reader.
RBL-2H3 cells obtained from the German Collection of Microorganisms and Cell Cultures (Braunschweig, Germany) were maintained in 70% Minimum Essential Medium with Earle's Salts/20% RPMI 1640/10% heat-inactivated fetal calf serum) supplemented with 2 mM GlutaMAX™-I in 5% CO2 at 37° C. and routinely checked to be free of mycoplasma contamination. Cells grown in 175 cm^2 flasks were split with 0.05% Trypsin/EDTA and resuspended in 20 ml fresh medium. One hundred and 50 μl cell suspension were plated per well into 24 well cluster plates (Costar, Schiphol-Rijk, Netherlands) and cells were used one or two days after plating, respectively.
Two to 24 hours before incubation with test compounds the medium was removed and cells were sensitized with 0.4 μg/ml anti-DNP IgE in fresh medium. Following sensitization, cells were washed once with warm TyB and incubated for 60 min with test compound at a maximum of 100 μM or the highest non-toxic concentration (total vehicle concentration adjusted to 1%) or 1% vehicle in TyB at 37° C. DNP-HSA (0.1 μg/ml final concentration) or buffer alone was added and cells incubated for 15 min at 37° C. Plates were centrifuged at 4° C. for 5 min at 250×g and immediately transferred to ice. Supernatants were collected and the cells lysed with lysis buffer. Hexosaminidase activity in supernatants and lysates was measured by incubating 25 μl aliquots with 100 μl MUG substrate solution in a 96-well plate at 37° C. for 30 min. The reaction was terminated by addition of 150 μl stop solution. Fluorescence was measured in a Tecan Safire™ plate reader at 365 nm excitation and 440 nm emission settings.
Each compound is tested in duplicates in at least three independent experiments. β-hexosaminidase release is calculated after subtraction of unspecific release (release without addition of antigen) using the formula: % degranulation=100×RFU supernatant/RFU lysate
Inhibition of β-hexosaminidase release with respect to control is calculated as
follows: % inhibition=100×(1−(RFU supernatant of compound/RFU supernatant of control))

For data set [2], the system named is membrane integrity (lactate dehydrogenase release). Nature of the data set: Cytotoxicity test / membrane integrity assay (Promega Cytotox-One), lactate dehydrogenase release. The note with it: for CD50: concentration at which 50% of maximal lactate dehydrogenase release is reached; for cytotoxicity (in words): Table 2.
For data set [3] the test system is unchanged.
Setting [4] is: Rattus norvegicus, RBL-2H3, read-out: maximum inhibition (concentration used).
Setting [5] is: Rattus norvegicus, RBL-2H3, at or 25 μM, read-out: inhibition of degranulation.
[6] abbreviates: Rattus norvegicus, RBL-2H3, 25 μM, read-out: maximum inhibition (concentration used).

pIC50: −log10 of the molar value. Entries after “also recorded” stand apart in the source; their conditions may differ. Counter-ions that a name gives are not always drawn. Like-named read-outs stand apart in the source and are kept apart here.

Regarding `CCCCCCCCCCCCCCCCOC[C@H](COP(=O)([O-])OCC[N+](C)(C)C)OC` [Compound 1, 2-O-methyl PAF C-16], the pIC50 in data set [1] (Rattus norvegicus) was 5.54. In addition, in data set [1] (setting [4]), the inhibition at 10 µM worked out at 89%. The inhibition at 25 µM in data set [1] (setting [5]) was greater than 75%. For the same compound, in data set [2], the CD50 amounted to 48.2 µM.
As for `CCCCCCCCCCCCCCCCOC[C@H](COP(=O)([O-])OCC[N+](C)(C)C)OCC` [Compound 2, 2-O-ethyl PAF C-16], the pIC50 in data set [1] (Rattus norvegicus) was 5.52. In data set [1] (setting [4]), the inhibition at 10 µM worked out at 86%. The inhibition at 25 µM in data set [1] (setting [5]) was greater than 75%. Besides, the CD50 in data set [2] came to 57.2 µM.
Regarding `CCCCCCCCCCCCCCCCSCC(COC)COP(=O)([O-])OCC[N+](C)(C)C` (centres unmarked) [Compound 4, 1-hexadecylmercapto-2-methoxymethyl-3-propyl phosphoric acid monocholine ester, reference compound], in data set [1] (Rattus norvegicus), the pIC50 was 5.32. For the same compound, the inhibition at 25 µM is 84% in data set [1] (setting [6]) and greater than 75% in data set [1] (setting [5]).
As for `CCCCCCCCCCCCCCCCCCOCC(COP(=O)([O-])OCC[N+](C)(C)C)OC` (centres unmarked) [Compound 5, edelfosine, reference compound], the pIC50 in data set [1] (Rattus norvegicus) is 5.21. Also, the inhibition at 25 µM in data set [1] (setting [6]) was found to be 79%. For the same compound, the inhibition at 25 µM in data set [1] (setting [5]) was greater than 75%. Also, in data set [2], the “cytotoxicity (in words)” value was “higher cytotoxicity” and the CD50 was found to be 59.0 µM.
Regarding `C/C=C/C(=O)O[C@H](COCCCCCCCCCCCCCCCC)COP(=O)([O-])OCCCCCC[N+](C)(C)C` [Compound 7, butenoyl PAF C-16], in data set [1] (Rattus norvegicus), the pIC50 was 4.96. In data set [1] (setting [6]), the inhibition at 25 µM came to 69%. Also, the CD50 in data set [2] was 79.6 µM.
For the compound `CCCCCCCCCCCCCCCCOC[C@H](COP(=O)([O-])OCC[N+]1(C)CCCC1)OC(C)=O` [Compound 8, pyrrolidino PAF C-16], the pIC50 in data set [1] (Rattus norvegicus) is 4.86. Also, in data set [1] (setting [6]), the inhibition at 25 µM turned out to be 53%. The compound also had a CD50 in data set [2] of 50.2 µM.
Turning to `CCCCCCCCCCCCCCCCCCOP(=O)([O-])OC1CC[N+](C)(C)CC1` [Compound 9, octadecyl-(N,N-dimethyl-piperidinio-4-yl)-phosphate, reference compound], in data set [1] (Rattus norvegicus), the pIC50 was 5.55. Besides, in data set [1] (setting [4]), the inhibition at 10 µM was 85%. The inhibition at 25 µM in data set [1] (setting [5]) is greater than 75%. In data set [2], the “cytotoxicity (in words)” value was “less cytotoxic; also recorded: low toxicity” and the CD50 was found to be 76.7 µM.
Regarding `CCCCCCCCCCCCCCCCOC[C@H](COP(=O)([O-])OCC[N+](C)(C)C)SC(C)=O` [Compound 12, 2-thio PAF C-16], the inhibition at 25 µM in data set [1] (setting [6]) amounted to 41%. The compound further showed a CD50 in data set [2] of 86.5 µM.
On the same counts, the results for `CCCCCCCCCCCCCCCCOC[C@@H](O)COP(=O)([O-])OCC[N+](C)(C)C` [Compound 13, 1-hexadecyl-sn-glycero-3-phosphocholine 3-sn-lysophosphatidylcholine] are 41% and 58.8 µM.
With `CCCCCCCCCCCCCCCCOC[C@H](COP(=O)([O-])OCC[N+](C)(C)C)OC(C)=O` [Compound 14, 1-hexadecyl-2-acetyl-sn-glycero-3-phosphocholine], in data set [1] (setting [6]), the inhibition at 25 µM stood at 42%. The CD50 in data set [3] turned out to be 57.7 µM.
Take `CCCCCCCCCCCCCCCCOC[C@H](COP(=O)([O-])OCCCCCC[N+](C)(C)C)OC(C)=O` [Compound 16, 1-O-hexadecyl-2-acetyl-sn-glycero-3-phospho-(N,N,N-trimethyl)hexanolamine]: the inhibition at 25 µM in data set [1] (setting [6]) worked out at 45%. In data set [2], this compound registered a CD50 of 51.3 µM.
As for `CCCCCCCCCCCCOP(=O)([O-])OCC[N+](C)(C)C` [Compound 17, Dodecylphosphocholine], the pIC50 in data set [1] (Rattus norvegicus) is 5.15. For the same compound, the inhibition at 25 µM in data set [1] (setting [6]) is 76%; in data set [1] (setting [5]) it was greater than 75%. Besides, the CD50 in data set [2] is greater than 100 µM.
In the case of `CCCCCCCCCCCCCCCC(=O)OC[C@H](O)COP(=O)([O-])OCC[N+](C)(C)C` [Compound 20, 1-palmitoyl-2-hydroxy-sn-glycero-3-phosphocholine], the inhibition at 25 µM in data set [1] (setting [6]) stood at 26%. Besides, the CD50 in data set [3] was found to be 70.3 µM.
Take `CCCCCCCCCCCCCCCCOC[C@H](CO)OC` [Compound 22, 1-O-hexa-decyl-2-O-methyl-sn-glycerol, reference compound]: the “activity in the mast cell degranulation assay (in words)” value in data set [1] is on record as “poor results”. For the same compound, in data set [1] (Rattus norvegicus, RBL-2H3, 100 μM, read-out: maximum inhibition (concentration used)), the inhibition at 100 µM was 15%. In data set [2], this compound yielded a CD50 greater than 100 µM.
Regarding `CCCCCCCCCCCCCCCCCCOP(=O)([O-])OCC[N+](C)(C)C` [Compound 23, octadecylphosphocholine (C18:0)], the pIC50 in data set [1] (Rattus norvegicus) was 5.59. The inhibition at 10 µM in data set [1] (setting [4]) was 82%. In data set [1] (setting [5]), the inhibition at 25 µM is greater than 75%. Moreover, the CD50 in data set [2] was greater than 50 µM.
In the same order, the values of `CCCCCCCC/C=C/CCCCCCCCOP(=O)([O-])OCC[N+](C)(C)C` [Compound 24, 1-elaidylphosphocholine (C18:1, trans)] are 5.54, 92%, greater than 75% and 59.6 µM.
As to `CCCCCCCCCCCCCCCCOCC(COP(=O)([O-])OCC[N+](C)(C)C)OC(C)=O` (centres unmarked) [Compound 25, 3-O-hexadecyl-2-acetyl-sn-glycero-1-posphocholine], in data set [1] (Rattus norvegicus), the pIC50 was 5.52. The inhibition at 10 µM in data set [1] (setting [4]) is 82%. The inhibition at 25 µM in data set [1] (setting [5]) is greater than 75%.
In the same order, the values of `CCCCCCCCCCCCCCCCOCCCOP(=O)([O-])OCC[N+](C)(C)C` [Compound 26, 1-O-hexadecyl-propanediol-3-phosphocholine] are 5.51, 90% and greater than 75%.
Consider `CCCCCCCCCCCCCCCCCCOCC(C)(C)COP(=O)([O-])OCC[N+](C)(C)C` [Compound 27, 1-O-octadecyl-(2,2-dimethyl)-propanediol-3-phosphocholine], for which the pIC50 in data set [1] (Rattus norvegicus) is 5.10. For the same compound, the inhibition at 25 µM is 85% in data set [1] (setting [6]) and greater than 75% in data set [1] (setting [5]).
Consider `CCCCCCCCCCCCCCCCOC[C@H](COP(=O)([O-])OCC[N+](C)(C)C)OC(=O)CC` [Compound 28, 1-O-hexadecyl-2-propionyl-sn-glycero-3-phosphocholine], for which the pIC50 in data set [1] (Rattus norvegicus) was 4.88. The inhibition at 25 µM in data set [1] (setting [6]) is 64%.
Turning to `O=C(O)c1cc(=O)c2c(OCC(O)COc3cccc4oc(C(=O)O)cc(=O)c34)cccc2o1` [cromogylcic acid, reference compound], the “activity in the mast cell degranulation assay (in words)” value in data set [1] is “no or only low activity”.
The same measure, in the same setting: next, `CN1CCC(=C2c3ccccc3CC(=O)c3sccc32)CC1` [ketotifen fumarate, reference compound]: “no or only low activity”.
